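In this assay, cells in 96-well plates receive the compound at five concentrations for 48 hours. Endpoints are linearly interpolated between the surrounding concentrations. TGI: total growth inhibition.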
How the values were obtained:
Experiment in all cases: NCI tumour cell line growth inhibition, 48 h
SW-620 colon = test system: SW-620 colon
OVCAR-3 ovarian = test system: OVCAR-3 ovarian
UO-31 renal = test system: UO-31 renal
HOP-92 NSCLC = test system: HOP-92 NSCLC
DMS 273 small cell lung = test system: DMS 273 small cell lung
HOP-18 NSCLC = test system: HOP-18 NSCLC
MALME-3M melanoma = test system: MALME-3M melanoma
DMS 114 small cell lung = test system: DMS 114 small cell lung
U251 CNS = test system: U251 CNS
LXFL 529 NSCLC = test system: LXFL 529 NSCLC
ACHN renal = test system: ACHN renal
RXF 393 renal = test system: RXF 393 renal
HT29 colon = test system: HT29 colon
NCI-H226 lung = test system: NCI-H226 lung
OVCAR-5 ovarian = test system: OVCAR-5 ovarian
IGROV1 ovarian = test system: IGROV1 ovarian
NCI-H460 lung = test system: NCI-H460 lung
SR leukemia = test system: SR leukemia
HCT-116 colon = test system: HCT-116 colon
SK-OV-3 ovarian = test system: SK-OV-3 ovarian
SF-268 CNS = test system: SF-268 CNS
MOLT-4 leukemia = test system: MOLT-4 leukemia
KM12 colon = test system: KM12 colon
OVCAR-8 ovarian = test system: OVCAR-8 ovarian
COLO 205 colon = test system: COLO 205 colon
A549 NSCLC = test system: A549 NSCLC
M14 melanoma = test system: M14 melanoma
SK-MEL-2 melanoma = test system: SK-MEL-2 melanoma
SK-MEL-5 melanoma = test system: SK-MEL-5 melanoma
786-0 renal = test system: 786-0 renal
LOX IMVI melanoma = test system: LOX IMVI melanoma
HCT-15 colon = test system: HCT-15 colon
KM20L2 colon = test system: KM20L2 colon
HCC-2998 colon = test system: HCC-2998 colon
UACC-257 melanoma = test system: UACC-257 melanoma
RXF-631 renal = test system: RXF-631 renal
SNB-78 CNS = test system: SNB-78 CNS
HOP-62 NSCLC = test system: HOP-62 NSCLC
EKVX NSCLC = test system: EKVX NSCLC
RPMI-8226 leukemia = test system: RPMI-8226 leukemia
SF-539 CNS = test system: SF-539 CNS
TK-10 renal = test system: TK-10 renal
HL-60(TB) leukemia = test system: HL-60(TB) leukemia
UACC-62 melanoma = test system: UACC-62 melanoma
SNB-75 CNS = test system: SNB-75 CNS
XF 498 CNS = test system: XF 498 CNS
SK-MEL-28 melanoma = test system: SK-MEL-28 melanoma
NCI-H522 lung = test system: NCI-H522 lung
SNB-19 CNS = test system: SNB-19 CNS
SF-295 CNS = test system: SF-295 CNS
SN12C renal = test system: SN12C renal
K-562 leukemia = test system: K-562 leukemia
OVCAR-4 ovarian = test system: OVCAR-4 ovarian
A498 renal = test system: A498 renal
DLD-1 colon = test system: DLD-1 colon
NCI-H23 lung = test system: NCI-H23 lung
CAKI-1 renal = test system: CAKI-1 renal
CCRF-CEM leukemia = test system: CCRF-CEM leukemia
M19-MEL melanoma = test system: M19-MEL melanoma

## CC12C3CC4C5CC(C(C53)[C@@H]1NCc1ccccc1)C42 (stereo partly drawn)
SW-620 colon
  TGI: > 100 µM
OVCAR-3 ovarian
  TGI: > 100 µM
UO-31 renal
  TGI: > 100 µM
HOP-92 NSCLC
  TGI: > 100 µM
DMS 273 small cell lung
  TGI: > 100 µM
HOP-18 NSCLC
  TGI: > 100 µM
MALME-3M melanoma
  TGI: > 100 µM
DMS 114 small cell lung
  TGI: > 100 µM
U251 CNS
  TGI: > 100 µM
LXFL 529 NSCLC
  TGI: > 100 µM
ACHN renal
  TGI: > 100 µM
RXF 393 renal
  TGI: > 100 µM
HT29 colon
  TGI: > 100 µM
NCI-H226 lung
  TGI: > 100 µM
OVCAR-5 ovarian
  TGI: > 100 µM
IGROV1 ovarian
  TGI: > 100 µM
NCI-H460 lung
  TGI: > 100 µM
SR leukemia
  TGI: > 100 µM
HCT-116 colon
  TGI: > 100 µM
SK-OV-3 ovarian
  TGI: > 100 µM
SF-268 CNS
  TGI: > 100 µM
MOLT-4 leukemia
  TGI: > 100 µM
KM12 colon
  TGI: > 100 µM
OVCAR-8 ovarian
  TGI: > 100 µM
COLO 205 colon
  TGI: 75.3 µM
A549 NSCLC
  TGI: > 100 µM
M14 melanoma
  TGI: > 100 µM
SK-MEL-2 melanoma
  TGI: > 100 µM
SK-MEL-5 melanoma
  TGI: > 100 µM
786-0 renal
  TGI: > 100 µM
LOX IMVI melanoma
  TGI: > 100 µM
HCT-15 colon
  TGI: > 100 µM
KM20L2 colon
  TGI: > 100 µM
HCC-2998 colon
  TGI: 41.8 µM
UACC-257 melanoma
  TGI: > 100 µM
RXF-631 renal
  TGI: > 100 µM
SNB-78 CNS
  TGI: > 100 µM
HOP-62 NSCLC
  TGI: > 100 µM
EKVX NSCLC
  TGI: > 100 µM
RPMI-8226 leukemia
  TGI: > 100 µM
SF-539 CNS
  TGI: > 100 µM
TK-10 renal
  TGI: > 100 µM
HL-60(TB) leukemia
  TGI: > 100 µM
UACC-62 melanoma
  TGI: > 100 µM
SNB-75 CNS
  TGI: > 100 µM
XF 498 CNS
  TGI: > 100 µM
SK-MEL-28 melanoma
  TGI: > 100 µM
NCI-H522 lung
  TGI: > 100 µM
SNB-19 CNS
  TGI: > 100 µM
SF-295 CNS
  TGI: > 100 µM
SN12C renal
  TGI: > 100 µM
K-562 leukemia
  TGI: > 100 µM
OVCAR-4 ovarian
  TGI: > 100 µM
A498 renal
  TGI: > 100 µM
DLD-1 colon
  TGI: > 100 µM
NCI-H23 lung
  TGI: > 100 µM
CAKI-1 renal
  TGI: > 100 µM
CCRF-CEM leukemia
  TGI: > 100 µM

## O=[N+]([O-])c1cccc(C2=NN(c3ccccc3)C3c4ccccc4OCC23)c1 (stereo not drawn)
SW-620 colon
  TGI: > 100 µM
OVCAR-3 ovarian
  TGI: > 100 µM
UO-31 renal
  TGI: > 100 µM
HOP-92 NSCLC
  TGI: > 100 µM
DMS 273 small cell lung
  TGI: > 100 µM
HOP-18 NSCLC
  TGI: > 100 µM
MALME-3M melanoma
  TGI: > 100 µM
DMS 114 small cell lung
  TGI: > 100 µM
U251 CNS
  TGI: > 100 µM
LXFL 529 NSCLC
  TGI: > 100 µM
ACHN renal
  TGI: > 100 µM
RXF 393 renal
  TGI: > 100 µM
HT29 colon
  TGI: > 100 µM
OVCAR-5 ovarian
  TGI: > 100 µM
IGROV1 ovarian
  TGI: > 100 µM
NCI-H460 lung
  TGI: > 100 µM
HCT-116 colon
  TGI: > 100 µM
SK-OV-3 ovarian
  TGI: > 100 µM
SF-268 CNS
  TGI: > 100 µM
MOLT-4 leukemia
  TGI: > 100 µM
KM12 colon
  TGI: > 100 µM
OVCAR-8 ovarian
  TGI: > 100 µM
COLO 205 colon
  TGI: > 100 µM
A549 NSCLC
  TGI: > 100 µM
SK-MEL-2 melanoma
  TGI: > 100 µM
786-0 renal
  TGI: > 100 µM
LOX IMVI melanoma
  TGI: > 100 µM
KM20L2 colon
  TGI: > 100 µM
HCC-2998 colon
  TGI: > 100 µM
UACC-257 melanoma
  TGI: > 100 µM
RXF-631 renal
  TGI: > 100 µM
SNB-78 CNS
  TGI: > 100 µM
M19-MEL melanoma
  TGI: > 100 µM
HOP-62 NSCLC
  TGI: > 100 µM
EKVX NSCLC
  TGI: > 100 µM
RPMI-8226 leukemia
  TGI: > 100 µM
SF-539 CNS
  TGI: > 100 µM
TK-10 renal
  TGI: > 100 µM
HL-60(TB) leukemia
  TGI: > 100 µM
SNB-75 CNS
  TGI: > 100 µM
XF 498 CNS
  TGI: > 100 µM
SK-MEL-28 melanoma
  TGI: > 100 µM
NCI-H522 lung
  TGI: > 100 µM
SNB-19 CNS
  TGI: > 100 µM
SF-295 CNS
  TGI: > 100 µM
K-562 leukemia
  TGI: > 100 µM
A498 renal
  TGI: > 100 µM
DLD-1 colon
  TGI: > 100 µM
NCI-H23 lung
  TGI: > 100 µM
CCRF-CEM leukemia
  TGI: > 100 µM

Source: PubChem BioAssay (NCI)
